From ChEMBL document CHEMBL1201862, “PubChem BioAssay data set” (2004)
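1) Cells in 96-well plates. 2) Compound, 48 h, 5 concentrations. 3) Linear interpolation between surrounding doses. 4) Unreached endpoint = highest concentration. At the GI50, growth is halved.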 Active and inactive are the calls of the source. Rule as the data show it: active = GI50 up to about 1.1 µM and inactive = higher.

What was measured:
Assay in all cases: NCI-60 cell line screen, 48 h
[1] = system: NCI-H226
[2] = system: ACHN
[3] = system: A498
[4] = system: UACC-62
[5] = system: HT-29
[6] = system: K562
[7] = system: NCI-H522
[8] = system: SK-MEL-28
[9] = system: A549
[10] = system: HL-60
[11] = system: PC-3
[12] = system: MDA-MB-435
[13] = system: LOX IMVI
[14] = system: SW-620
[15] = system: SN12C
[16] = system: IGROV-1
[17] = system: Malme-3M
[18] = system: TK-10
[19] = system: SK-MEL-2
[20] = system: SF-539

SMILES | GI50 [1] | GI50 [2] | GI50 [3] | GI50 [4] | GI50 [5] | GI50 [6] | GI50 [7] | GI50 [8] | GI50 [9] | GI50 [10] | GI50 [11] | GI50 [12] | GI50 [13] | GI50 [14] | GI50 [15] | GI50 [16] | GI50 [17] | GI50 [18] | GI50 [19] | GI50 [20]
Cc1ccc(S(=O)ON2CCC(C(=O)O)(c3ccccc3)CC2)cc1 (configuration not stated) | > 100 µM (inactive) | > 100 µM (inactive) | > 100 µM (inactive) | > 100 µM (inactive) | > 100 µM (inactive) | > 100 µM (inactive) | > 100 µM (inactive) | > 100 µM (inactive) | > 100 µM (inactive) | > 100 µM (inactive) | > 100 µM (inactive) | > 100 µM (inactive) | > 100 µM (inactive) | > 100 µM (inactive) | > 100 µM (inactive) | > 100 µM (inactive) | > 100 µM (inactive) | > 100 µM (inactive) |  | 
NC(Cc1ccccc1)C(=O)N[C@H]1c2ccsc2/C(=N/O)[C@H]1O (some centres not stated) | > 100 µM (inactive) |  | > 100 µM (inactive) | > 100 µM (inactive) | > 100 µM (inactive) | > 100 µM (inactive) |  | > 100 µM (inactive) | > 100 µM (inactive) | > 100 µM (inactive) | > 100 µM (inactive) | > 100 µM (inactive) | > 100 µM (inactive) | > 100 µM (inactive) | > 100 µM (inactive) | > 100 µM (inactive) | > 100 µM (inactive) | > 100 µM (inactive) | > 100 µM (inactive) | > 100 µM (inactive)
O=P(Oc1ccc(Cl)cc1)(Oc1ccc(Cl)cc1)N1CC1 | > 10 µM (inactive) | > 10 µM (inactive) | > 10 µM (inactive) | > 10 µM (inactive) | > 10 µM (inactive) | > 10 µM (inactive) |  | > 10 µM (inactive) | > 10 µM (inactive) | > 10 µM (inactive) | > 10 µM (inactive) | > 10 µM (inactive) | > 10 µM (inactive) | > 10 µM (inactive) | > 10 µM (inactive) |  | > 10 µM (inactive) | > 10 µM (inactive) | > 10 µM (inactive) | > 10 µM (inactive)
COc1ccc(Nc2cc(O)nc(O)n2)cc1 | > 100 µM (inactive) | > 100 µM (inactive) | > 100 µM (inactive) |  | > 100 µM (inactive) | > 100 µM (inactive) |  | > 100 µM (inactive) | > 100 µM (inactive) | > 100 µM (inactive) | > 100 µM (inactive) | > 100 µM (inactive) | > 100 µM (inactive) | > 100 µM (inactive) | > 100 µM (inactive) | > 100 µM (inactive) | > 100 µM (inactive) | > 100 µM (inactive) |  | > 100 µM (inactive)
COc1ccc(-n2c(N)c(C#N)c(C#N)c2-c2ccccc2)cc1 | 13.8 µM (inactive) | > 100 µM (inactive) | > 100 µM (inactive) | 10.7 µM (inactive) | > 100 µM (inactive) |  | 59.4 µM (inactive) |  | > 100 µM (inactive) | > 100 µM (inactive) | 19.8 µM (inactive) | > 100 µM (inactive) | > 100 µM (inactive) | > 100 µM (inactive) | > 100 µM (inactive) | 24.2 µM (inactive) | > 100 µM (inactive) | > 100 µM (inactive) | 22.8 µM (inactive) | 11 µM (inactive)
COc1ccc(Cc2nc3cc([N+](=O)[O-])ccc3n2C[C@@H]2CCCN3CCCCC23)cc1 (some centres not stated) | 31.6 µM (inactive) | 33.2 µM (inactive) | 16.6 µM (inactive) | 17.3 µM (inactive) | 17 µM (inactive) | 19.8 µM (inactive) |  | 17.7 µM (inactive) | 15.8 µM (inactive) | 4.01 µM (inactive) | 27.1 µM (inactive) | 18.6 µM (inactive) | 16.7 µM (inactive) | 26 µM (inactive) |  | 17.7 µM (inactive) | 16.7 µM (inactive) | 25.2 µM (inactive) | 17.7 µM (inactive) | 
O=c1[nH]c(=O)n(C2OC(CO)C(O)C2O)cc1OCCCc1ccccc1 (configuration not stated) | > 100 µM (inactive) | > 100 µM (inactive) | > 100 µM (inactive) | > 100 µM (inactive) | > 100 µM (inactive) |  |  | > 100 µM (inactive) | > 100 µM (inactive) | > 100 µM (inactive) | > 100 µM (inactive) | > 100 µM (inactive) | > 100 µM (inactive) | > 100 µM (inactive) | > 100 µM (inactive) | > 100 µM (inactive) | > 100 µM (inactive) | > 100 µM (inactive) | > 100 µM (inactive) | > 100 µM (inactive)
Cc1ccc(S(=O)(=O)NCCCSCCSCCCN)cc1 | > 100 µM (inactive) | > 100 µM (inactive) | > 100 µM (inactive) |  | > 100 µM (inactive) | > 100 µM (inactive) | > 100 µM (inactive) | > 100 µM (inactive) | > 100 µM (inactive) | > 100 µM (inactive) | > 100 µM (inactive) | > 100 µM (inactive) | > 100 µM (inactive) | > 100 µM (inactive) | > 100 µM (inactive) |  |  | > 100 µM (inactive) |  | 
Nc1nc(-c2ccccc2)nc2oc(-c3cccs3)nc12 | > 100 µM (inactive) | > 100 µM (inactive) | > 100 µM (inactive) | > 100 µM (inactive) | > 100 µM (inactive) | > 100 µM (inactive) | > 100 µM (inactive) | > 100 µM (inactive) | > 100 µM (inactive) | > 100 µM (inactive) | > 100 µM (inactive) | > 100 µM (inactive) | > 100 µM (inactive) | > 100 µM (inactive) | > 100 µM (inactive) | > 100 µM (inactive) |  | > 100 µM (inactive) | > 100 µM (inactive) | > 100 µM (inactive)
CC(=O)c1ccc2c3c1[C@@H]1O[C@@H]1c1cccc(c1-3)[C@@H]1O[C@H]21 | 37.8 µM (inactive) | 21.6 µM (inactive) | 21.5 µM (inactive) | 14 µM (inactive) | 5.55 µM (inactive) | 4.47 µM (inactive) | 5.4 µM (inactive) | 3.5 µM (inactive) | 14.5 µM (inactive) | 9.91 µM (inactive) | 17.3 µM (inactive) | 6.92 µM (inactive) | 2.07 µM (inactive) | 2.54 µM (inactive) | 8.26 µM (inactive) | 0.782 µM (active) | 7.4 µM (inactive) | 20.7 µM (inactive) | 14.1 µM (inactive) | 
C=CCN1C[C@H](C)N([C@H](c2ccc(C(=O)N(CC)CC)cc2)c2cccc(OC)c2)C[C@H]1C [SNC-80] | 21.4 µM (inactive) | 35.6 µM (inactive) | 13 µM (inactive) | 34.1 µM (inactive) | 27.5 µM (inactive) |  | 36.3 µM (inactive) | 69.3 µM (inactive) | 54.3 µM (inactive) | 24.8 µM (inactive) | 31.8 µM (inactive) | 34.7 µM (inactive) |  | 44.6 µM (inactive) | 64.1 µM (inactive) | 35.2 µM (inactive) | 16.7 µM (inactive) | 48 µM (inactive) | > 100 µM (inactive) | 51.5 µM (inactive)
COc1cc(C2(O)c3ccccc3C3=NCCN32)cc(OC)c1OC (configuration not stated) | 73.3 µM (inactive) | > 100 µM (inactive) | > 100 µM (inactive) | > 100 µM (inactive) | > 100 µM (inactive) | > 100 µM (inactive) |  | > 100 µM (inactive) | > 100 µM (inactive) | > 100 µM (inactive) | > 100 µM (inactive) | > 100 µM (inactive) | > 100 µM (inactive) | > 100 µM (inactive) | > 100 µM (inactive) |  |  | > 100 µM (inactive) | > 100 µM (inactive) | 
CC12CC(OC(=O)[C@]1(C)O)[C@@H]([C@]1(O)CC[C@H]3[C@@H]4C[C@H]5O[C@]56[C@@H](O)C=CC(=O)[C@]6(C)[C@H]4CC[C@@]31C)C2 (some centres not stated) | 40.7 µM (inactive) | 10.9 µM (inactive) | 13.8 µM (inactive) | 14.6 µM (inactive) | 4.03 µM (inactive) | 3.17 µM (inactive) | 1.16 µM (inactive) | 11.7 µM (inactive) | 30.5 µM (inactive) | < 0.01 µM (active) | 12.1 µM (inactive) | 7.4 µM (inactive) | 4.42 µM (inactive) | 3.18 µM (inactive) | 6.19 µM (inactive) | 17.3 µM (inactive) |  | 7.36 µM (inactive) | 6.08 µM (inactive) | 2.78 µM (inactive)
Oc1ccc(/C=C/c2cc(O)cc(O)c2)cc1 [RESVERATROL] | 39.9 µM (inactive) | 27 µM (inactive) | 24.3 µM (inactive) | 41.2 µM (inactive) | 24.3 µM (inactive) |  |  | > 100 µM (inactive) | 51.6 µM (inactive) | 20.4 µM (inactive) | 42.4 µM (inactive) | 70.1 µM (inactive) |  | > 100 µM (inactive) | 42.8 µM (inactive) |  |  | > 100 µM (inactive) | 86.3 µM (inactive) | 29.6 µM (inactive)
Oc1ccc(/C=C/c2cccc(/C=C/c3ccc(O)c(O)c3)n2)cc1O |  | 5.14 µM (inactive) | 12.9 µM (inactive) | 6.12 µM (inactive) | 10.8 µM (inactive) | 3.86 µM (inactive) |  | 14.2 µM (inactive) | 5.25 µM (inactive) | 2.82 µM (inactive) | 17.5 µM (inactive) | 10.7 µM (inactive) | 5.14 µM (inactive) | 7.05 µM (inactive) | 8.87 µM (inactive) | 6.15 µM (inactive) |  | 11.4 µM (inactive) | 11.7 µM (inactive) | 3.02 µM (inactive)
